Measured values as given in US10231954B2, “Neurodegenerative therapies” (LYTIX BIOPHARMA AS, priority 2014, dated 2019).
Read-outs that look alike come from different tables or passages of the source.

Experiments:
Type in all cases: biochemical
MARK4 = biological target: T1, MARK4 (Homo sapiens, UniProt Q96L34); assay: Kinase profiling MARK4; conditions: for remaining activity at 100 µM: read-out: residual kinase activity, MARK4
T1 sequence (Q96L34 1-752): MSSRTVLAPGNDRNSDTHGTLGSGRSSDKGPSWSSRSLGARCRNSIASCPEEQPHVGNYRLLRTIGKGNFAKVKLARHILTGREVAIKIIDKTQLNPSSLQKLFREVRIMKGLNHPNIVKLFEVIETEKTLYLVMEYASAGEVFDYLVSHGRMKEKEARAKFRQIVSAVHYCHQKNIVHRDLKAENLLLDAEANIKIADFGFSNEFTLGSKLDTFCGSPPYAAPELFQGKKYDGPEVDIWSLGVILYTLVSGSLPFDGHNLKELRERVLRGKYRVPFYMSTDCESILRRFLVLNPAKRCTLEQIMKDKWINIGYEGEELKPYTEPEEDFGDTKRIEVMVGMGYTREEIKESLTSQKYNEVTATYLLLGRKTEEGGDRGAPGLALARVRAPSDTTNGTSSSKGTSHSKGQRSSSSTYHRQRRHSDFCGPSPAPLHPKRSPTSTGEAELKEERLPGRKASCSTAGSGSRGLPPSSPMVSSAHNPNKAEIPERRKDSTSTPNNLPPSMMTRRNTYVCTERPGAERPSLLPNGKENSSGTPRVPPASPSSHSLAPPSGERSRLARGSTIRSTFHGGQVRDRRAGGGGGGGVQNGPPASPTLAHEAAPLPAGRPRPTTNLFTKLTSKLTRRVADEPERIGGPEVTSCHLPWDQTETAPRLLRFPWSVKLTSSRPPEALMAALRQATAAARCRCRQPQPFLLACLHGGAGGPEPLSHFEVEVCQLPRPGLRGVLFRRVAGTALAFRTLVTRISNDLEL
Excerpt: (§1) Any value less that 25 is considered to be highly significant inhibition.

PIM2 = PIM2 (Homo sapiens, UniProt Q9P1W9); assay: Kinase profiling PIM2; conditions: for remaining activity at 100 µM: read-out: residual kinase activity, PIM2
Chain of PIM2 (Q9P1W9 whole entry, species assumed): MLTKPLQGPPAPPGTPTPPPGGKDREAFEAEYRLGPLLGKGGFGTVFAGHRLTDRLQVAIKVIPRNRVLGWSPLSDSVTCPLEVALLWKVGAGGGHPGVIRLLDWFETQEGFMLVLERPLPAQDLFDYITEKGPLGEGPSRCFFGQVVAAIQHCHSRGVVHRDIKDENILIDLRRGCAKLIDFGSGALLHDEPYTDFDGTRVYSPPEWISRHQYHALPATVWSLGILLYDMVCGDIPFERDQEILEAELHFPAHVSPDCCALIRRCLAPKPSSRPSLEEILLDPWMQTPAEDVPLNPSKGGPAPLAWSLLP
Excerpt: as §1

MST3 = MST3 (Homo sapiens, UniProt Q9Y6E0); assay: Kinase profiling MST3; conditions: for remaining activity at 100 µM: read-out: residual kinase activity, MST3
Chain of MST3 (Q9Y6E0 whole entry, species assumed): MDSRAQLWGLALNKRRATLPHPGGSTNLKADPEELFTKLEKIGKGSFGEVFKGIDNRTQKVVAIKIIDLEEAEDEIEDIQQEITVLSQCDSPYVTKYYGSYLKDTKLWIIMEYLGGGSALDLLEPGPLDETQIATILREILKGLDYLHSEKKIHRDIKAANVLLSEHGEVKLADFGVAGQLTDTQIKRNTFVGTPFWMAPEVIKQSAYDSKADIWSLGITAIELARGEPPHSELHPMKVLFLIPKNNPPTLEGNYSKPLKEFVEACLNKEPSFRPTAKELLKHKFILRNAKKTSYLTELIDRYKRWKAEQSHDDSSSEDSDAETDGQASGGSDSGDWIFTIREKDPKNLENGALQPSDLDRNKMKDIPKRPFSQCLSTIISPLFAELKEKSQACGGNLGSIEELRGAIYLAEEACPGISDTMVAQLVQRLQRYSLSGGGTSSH
Excerpt: as §1

GCK = biological target: T2, GCK (Homo sapiens, UniProt Q12851); assay: Kinase profiling GCK; conditions: for remaining activity at 100 µM: read-out: residual kinase activity, GCK
T2 sequence (Q12851 1-820): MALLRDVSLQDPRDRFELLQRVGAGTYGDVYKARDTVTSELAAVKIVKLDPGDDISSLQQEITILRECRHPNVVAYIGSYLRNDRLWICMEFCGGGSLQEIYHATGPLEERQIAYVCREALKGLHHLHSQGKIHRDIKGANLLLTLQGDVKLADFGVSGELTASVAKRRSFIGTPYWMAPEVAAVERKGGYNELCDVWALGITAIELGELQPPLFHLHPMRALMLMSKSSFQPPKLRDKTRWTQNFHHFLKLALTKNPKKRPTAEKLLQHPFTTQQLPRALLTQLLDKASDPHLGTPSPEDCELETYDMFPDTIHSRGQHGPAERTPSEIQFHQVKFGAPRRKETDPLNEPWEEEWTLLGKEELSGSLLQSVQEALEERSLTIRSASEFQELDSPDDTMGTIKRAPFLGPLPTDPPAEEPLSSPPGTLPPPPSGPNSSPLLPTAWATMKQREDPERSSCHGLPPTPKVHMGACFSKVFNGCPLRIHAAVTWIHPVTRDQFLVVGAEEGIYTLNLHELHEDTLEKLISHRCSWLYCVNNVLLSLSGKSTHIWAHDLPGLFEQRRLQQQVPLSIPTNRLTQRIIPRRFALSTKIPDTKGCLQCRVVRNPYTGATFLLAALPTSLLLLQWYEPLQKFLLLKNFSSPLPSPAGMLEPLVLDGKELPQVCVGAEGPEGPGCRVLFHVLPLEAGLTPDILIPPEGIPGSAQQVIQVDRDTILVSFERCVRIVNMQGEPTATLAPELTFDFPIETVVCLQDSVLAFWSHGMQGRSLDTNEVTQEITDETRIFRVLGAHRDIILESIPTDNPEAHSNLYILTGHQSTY
Excerpt: as §1

TESK1 = TESK1 (Homo sapiens, UniProt Q15569); assay: Kinase profiling TESK1; conditions: for remaining activity at 100 µM: read-out: residual kinase activity, TESK1
Chain of TESK1 (Q15569 whole entry, species assumed): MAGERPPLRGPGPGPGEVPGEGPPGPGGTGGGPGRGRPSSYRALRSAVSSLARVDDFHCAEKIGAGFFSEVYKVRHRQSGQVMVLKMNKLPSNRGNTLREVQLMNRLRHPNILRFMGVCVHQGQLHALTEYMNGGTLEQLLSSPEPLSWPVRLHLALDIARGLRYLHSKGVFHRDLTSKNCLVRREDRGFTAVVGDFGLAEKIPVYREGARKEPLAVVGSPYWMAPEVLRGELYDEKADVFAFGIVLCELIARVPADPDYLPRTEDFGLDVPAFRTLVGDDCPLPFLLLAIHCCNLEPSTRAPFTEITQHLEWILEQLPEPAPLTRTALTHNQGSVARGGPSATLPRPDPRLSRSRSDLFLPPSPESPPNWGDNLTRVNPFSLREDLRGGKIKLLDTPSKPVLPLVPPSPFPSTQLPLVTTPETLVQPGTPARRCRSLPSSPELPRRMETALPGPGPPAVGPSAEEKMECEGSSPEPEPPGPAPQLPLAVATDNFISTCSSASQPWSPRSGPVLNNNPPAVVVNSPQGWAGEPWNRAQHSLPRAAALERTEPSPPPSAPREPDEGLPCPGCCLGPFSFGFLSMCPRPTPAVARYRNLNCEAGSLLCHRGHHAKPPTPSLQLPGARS
Excerpt: as §1

ABL = ABL (Homo sapiens, UniProt P00519); assay: Kinase profiling ABL; conditions: for remaining activity at 100 µM: read-out: residual kinase activity, ABL
Chain of ABL (P00519 whole entry, species assumed): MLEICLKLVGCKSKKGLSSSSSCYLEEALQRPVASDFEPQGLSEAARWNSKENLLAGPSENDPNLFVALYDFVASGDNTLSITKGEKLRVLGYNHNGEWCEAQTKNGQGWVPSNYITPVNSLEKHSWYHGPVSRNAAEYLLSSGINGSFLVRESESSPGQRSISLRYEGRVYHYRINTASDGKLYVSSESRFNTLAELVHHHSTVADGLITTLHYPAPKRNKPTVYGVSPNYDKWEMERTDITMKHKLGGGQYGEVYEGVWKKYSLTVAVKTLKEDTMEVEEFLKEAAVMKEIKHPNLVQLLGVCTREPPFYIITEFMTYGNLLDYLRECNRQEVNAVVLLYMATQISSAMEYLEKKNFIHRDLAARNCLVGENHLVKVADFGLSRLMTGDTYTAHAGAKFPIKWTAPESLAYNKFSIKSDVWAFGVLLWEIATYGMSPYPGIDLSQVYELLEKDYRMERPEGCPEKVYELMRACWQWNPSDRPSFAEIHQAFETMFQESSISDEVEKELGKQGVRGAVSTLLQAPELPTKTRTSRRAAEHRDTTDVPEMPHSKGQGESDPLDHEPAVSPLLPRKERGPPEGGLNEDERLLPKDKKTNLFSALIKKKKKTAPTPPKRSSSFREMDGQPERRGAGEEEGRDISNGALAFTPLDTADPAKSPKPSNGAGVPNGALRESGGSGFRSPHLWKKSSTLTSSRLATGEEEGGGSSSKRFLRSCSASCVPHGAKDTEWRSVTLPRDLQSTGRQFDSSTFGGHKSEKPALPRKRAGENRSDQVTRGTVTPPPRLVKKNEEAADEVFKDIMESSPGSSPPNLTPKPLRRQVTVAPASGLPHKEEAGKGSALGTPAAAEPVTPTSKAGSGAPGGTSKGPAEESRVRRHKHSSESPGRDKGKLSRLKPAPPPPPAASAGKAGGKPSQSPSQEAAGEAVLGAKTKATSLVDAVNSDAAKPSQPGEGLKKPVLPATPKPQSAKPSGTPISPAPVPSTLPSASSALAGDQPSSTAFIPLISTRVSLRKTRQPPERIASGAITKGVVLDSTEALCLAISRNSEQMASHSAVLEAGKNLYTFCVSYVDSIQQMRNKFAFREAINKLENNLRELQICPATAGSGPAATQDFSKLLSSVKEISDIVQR
Excerpt: as §1

ZAP70 = biological target: T3, ZAP70 (Homo sapiens, UniProt P43403); assay: Kinase profiling ZAP70; conditions: for remaining activity at 100 µM: read-out: residual kinase activity, ZAP70
T3 sequence (P43403 1-619): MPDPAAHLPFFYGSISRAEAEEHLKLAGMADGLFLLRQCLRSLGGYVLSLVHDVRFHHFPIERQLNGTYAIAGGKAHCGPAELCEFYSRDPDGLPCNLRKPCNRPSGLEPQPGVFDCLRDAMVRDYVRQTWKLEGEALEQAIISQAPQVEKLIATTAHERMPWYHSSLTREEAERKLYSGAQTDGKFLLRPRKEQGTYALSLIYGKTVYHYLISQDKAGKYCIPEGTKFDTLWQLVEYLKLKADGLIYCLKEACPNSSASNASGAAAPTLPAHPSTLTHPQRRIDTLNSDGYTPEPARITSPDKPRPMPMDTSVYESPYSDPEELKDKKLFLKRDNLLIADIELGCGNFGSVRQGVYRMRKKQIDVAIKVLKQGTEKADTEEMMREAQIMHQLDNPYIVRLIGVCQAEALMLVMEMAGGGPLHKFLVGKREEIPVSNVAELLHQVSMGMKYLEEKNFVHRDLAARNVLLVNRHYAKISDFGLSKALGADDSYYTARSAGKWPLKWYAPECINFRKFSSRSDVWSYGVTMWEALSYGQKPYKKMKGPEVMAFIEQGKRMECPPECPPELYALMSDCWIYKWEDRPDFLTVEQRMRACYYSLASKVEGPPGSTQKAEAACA
Excerpt: as §1

EPH-A4 = EPH-A4 (Homo sapiens, UniProt P54764); assay: Kinase profiling EPH-A4; conditions: for remaining activity at 100 µM: read-out: residual kinase activity, EPH-A4
Chain of EPH-A4 (P54764 20-986, species assumed): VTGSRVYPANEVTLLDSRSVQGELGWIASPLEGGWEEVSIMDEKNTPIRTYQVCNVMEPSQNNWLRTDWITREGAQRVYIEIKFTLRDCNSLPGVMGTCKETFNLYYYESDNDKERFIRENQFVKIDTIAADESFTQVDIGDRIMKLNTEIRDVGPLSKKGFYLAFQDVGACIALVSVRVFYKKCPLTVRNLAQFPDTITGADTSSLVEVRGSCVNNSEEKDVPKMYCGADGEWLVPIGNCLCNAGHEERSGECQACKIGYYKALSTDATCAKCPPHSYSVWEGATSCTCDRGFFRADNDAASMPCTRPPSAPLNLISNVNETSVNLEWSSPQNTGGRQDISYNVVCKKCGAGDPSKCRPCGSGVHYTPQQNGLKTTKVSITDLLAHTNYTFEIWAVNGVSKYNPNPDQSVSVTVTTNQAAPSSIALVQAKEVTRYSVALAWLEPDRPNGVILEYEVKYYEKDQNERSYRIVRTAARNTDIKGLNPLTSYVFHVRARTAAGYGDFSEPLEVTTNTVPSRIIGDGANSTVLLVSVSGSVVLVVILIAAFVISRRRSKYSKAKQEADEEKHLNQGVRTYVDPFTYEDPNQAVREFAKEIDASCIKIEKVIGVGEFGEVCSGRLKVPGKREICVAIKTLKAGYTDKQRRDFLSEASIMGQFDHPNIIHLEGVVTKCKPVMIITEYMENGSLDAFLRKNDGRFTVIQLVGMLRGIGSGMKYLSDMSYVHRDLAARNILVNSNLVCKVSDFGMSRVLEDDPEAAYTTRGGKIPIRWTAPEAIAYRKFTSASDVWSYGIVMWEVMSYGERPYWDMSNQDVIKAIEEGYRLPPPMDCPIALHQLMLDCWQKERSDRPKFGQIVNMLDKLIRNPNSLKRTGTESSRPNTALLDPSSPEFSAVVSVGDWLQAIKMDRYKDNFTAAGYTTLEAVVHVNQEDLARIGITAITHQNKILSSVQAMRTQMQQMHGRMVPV
Excerpt: as §1

[1] = 100 micromolar inhibitor concentration, 100 is no change
[2] = 100 micromolar inhibitor, 100 = no change

SMILES | remaining activity at 100 µM (MARK4; [1]) | remaining activity at 100 µM (PIM2; [1]) | remaining activity at 100 µM (MST3; [1]) | remaining activity at 100 µM (GCK; [1]) | remaining activity at 100 µM (TESK1; [1]) | remaining activity at 100 µM (ABL; [1]) | remaining activity at 100 µM (ZAP70; [1]) | remaining activity at 100 µM (EPH-A4; [1]) | residual kinase activity, MARK4 (MARK4; [1]) | residual kinase activity, PIM2 (PIM2; [1]) | residual kinase activity, MST3 (MST3; [1]) | residual kinase activity, GCK (GCK; [1]) | residual kinase activity, TESK1 (TESK1; [1]) | residual kinase activity, ABL (ABL; [1]) | residual kinase activity, ZAP70 (ZAP70; [1]) | residual kinase activity, EPH-A4 (EPH-A4; [1]) | other results
CC(=O)Nc1nc2cc(O)ccc2s1 [Compound 01-66, N-(5-hydroxybenzo[d]thiazol-2-yl)acetamide] |  |  |  |  |  |  |  |  |  |  |  |  |  |  |  |  | remaining activity at 100 µM (MARK4): 80%; remaining activity at 100 µM (PIM2): 16%; remaining activity at 100 µM (MST3): 79%; remaining activity at 100 µM (GCK): 32%; remaining activity at 100 µM (TESK1): 94%; remaining activity at 100 µM (ABL): 29%; remaining activity at 100 µM (ZAP70): 113%; remaining activity at 100 µM (EPH-A4): 73%
CC(=O)Nc1nc2ccc(O)cc2s1 [Compound 01-71] | 66% | 38% | 66% | 19% | 61% | 17% | 126% | 77% |  |  |  |  |  |  |  |  | 
CC(=O)Nc1nc2ccc(C(F)(F)F)cc2s1 [Compound 01-90] | 66% | 94% | 85% | 15% | 93% | 31% | 122% | 45% |  |  |  |  |  |  |  |  | 
CC(=O)Nc1nc2ccc(C#N)cc2s1 [Compound 01-94] | 51% | 73% | 71% | 11% | 90% | 31% | 118% | 62% |  |  |  |  |  |  |  |  | 
CC(=O)Nc1cccc(NC(=O)c2nc3ccc(O)cc3s2)c1 [Compound 03-07, N-(3-acetamidophenyl)-6-hydroxybenzo[d]thiazole-2-carboxamide] |  |  |  |  |  |  |  |  |  |  |  |  |  |  |  |  | remaining activity at 100 µM (MARK4; [2]): 71%; remaining activity at 100 µM (PIM2; [2]): 61%; remaining activity at 100 µM (MST3; [2]): 85%; remaining activity at 100 µM (GCK; [2]): 35%; remaining activity at 100 µM (TESK1; [2]): 101%; remaining activity at 100 µM (ABL; [2]): 105%; remaining activity at 100 µM (ZAP70; [2]): 94%; remaining activity at 100 µM (EPH-A4; [2]): 95%
O=C(Nc1nc2cc(O)ccc2s1)c1ccncc1 [Compound 03-11] |  |  |  |  |  |  |  |  | 102 | 89 | 92 | 33 | 88 | 99 | 89 | 91 | 
O=C(Nc1nc2ccc(O)cc2s1)c1ccccn1 [Compound 03-12] |  |  |  |  |  |  |  |  | 90 | 75 | 85 | 29 | 84 | 113 | 91 | 78 | 
O=C(Nc1nc2cc(O)ccc2s1)c1ccccn1 [Compound 03-13] |  |  |  |  |  |  |  |  | 71 | 77 | 78 | 39 | 93 | 71 | 105 | 89 | 
COc1ccc2sc(NC(C)=O)nc2c1 [Compound 03-21] | 100% | 48% | 91% | 3% | 104% | 111% | 98% | 98% |  |  |  |  |  |  |  |  | 
CC(=O)Nc1nc2ccccc2s1 [Compound 03-32] |  |  |  |  |  |  |  |  | 91 | 100 | 87 | 39 | 95 | 86 | 111 | 111 | 
O=C(Nc1nc2cc(O)ccc2s1)c1cccnc1 [Compound 03-33] |  |  |  |  |  |  |  |  | 95 | 69 | 90 | 25 | 102 | 105 | 110 | 92 | 
O=C(Nc1nc2ccc(O)cc2s1)c1ccccc1 [Compound 03-60] |  |  |  |  |  |  |  |  | 67 | 67 | 54 | 4 | 65 | 54 | 109 | 87 | 
CC(=O)Nc1nc2cc(C(F)(F)F)ccc2s1 [Compound 03-73] | 97% | 63% | 89% | 36% | 115% | 109% | 115% | 103% |  |  |  |  |  |  |  |  | 
